In test [1] the test system is chloride channels in ROS 17/2.8 cells. Conditions: 1 nM HL in the bath; 1α,25(OH)2 D3 5 nM or less; listed as 1β,25(OH)2 D3. Here is the method: In each case, at least a 3-min period was allowed after the addition of the analog to the bath for currents to reach a stable amplitude value. […] Anion currents were isolated from inward Ba^2+ currents after blockade of Ca^2+ channels with 100 μM Cd^2+.

Test [2] has as its system MAP-kinase p42^mapk in NB4 cells. The test can be described thus: MAP-kinase activation (p42mapk phosphorylation) in NB4 cells. The format is cell-based, human. Here is the method: In order to determine whether MAP-kinase phosphorylation is specific and is altered by 1α,25(OH)2 D3, the time-dependent effects of 1α,25(OH)2 D3 on p42^mapk phosphorylation was examined using human acute promyelocytic leukemia cells (NB4). In this study, the NB4 cells, cultured in 10% charcoal-stripped fetal calf serum (FCS) medium, were treated with 1α,25(OH)2 D3 at 10^-8 M for various time periods. Cells were then extracted and the phosphorylated MAP-kinase was immunoprecipitated with anti-phosphotyrosine antibody and further analyzed by Western blot using the antibodies against p42^mapk.
The lysate was further processed for anti-phosphotyrosine immunoprecipitation. […] After transferring the proteins to the PVDF membrane, the membrane was further incubated with primary anti-p42^mapk antibodies that were (+) or were not (-) pre-exposed to MAP-kinase peptide.
This example describes assays used for measurement of MAP-kinase activity in NB4 cells.
Cell culture of NB4 cells
The cell line is characterized by a translocation involving chromosomes 15 and 17, which is typical of the classical form of APL-M3 in the French-American-British [FAB] classification. NB4 cells were cultured in DMEM/F12 medium with 10% FCS at 5% CO2 balanced air and were routinely passaged as suspension cultures and only passages 8 to 20 were used for each assay.
Immunoprecipitation of Tyrosine-Phosphorylated Proteins
NB4 cells were cultured in 60-mm diameter dishes and treated with 1,25(OH)2 D3 or analogs in 4 ml of DMEM/F12 containing 10% charcoal-stripped FCS.
Insoluble material was removed in a microcentrifuge at 14,000 rpm for 10 min. Protein concentration was determined with a protein assay kit (Bio-Rad Lab, Hercules, Calif.). For immunoprecipitation, the supernatant was incubated with bead-conjugated monoclonal anti-phosphotyrosine antibody overnight at 4° C. The immunoprecipitates containing the tyrosine-phosphorylated proteins were washed four times with freshly-prepared RIPA buffer and further eluted with 2× Laemmli gel buffer.
At this point, the samples were either stored at -20° C. for further use or processed via Western blots. Equal loading of MAP-kinase protein was determined by running the Western blots using polyclonal anti-p42^mapk antibody. For this purpose, samples were aliquoted from each cell extract before immunoprecipitation.
SDS Gel Electrophoresis and Western blot
The membrane was further immunoblotted using a rabbit anti-p42^mapk polyclonal antibody overnight at 4° C. followed by incubation with secondary horseradish peroxidase-conjugated mouse anti-rabbit antibody for 1 hr at 25° C. The phosphorylated MAP-kinase bands were then visualized by enhanced chemiluminescence (ECL). A Ultrascan LX Laser Densitometer (LKB, Bromma, Sweden) scanned the density of the immuno-phosphoprotein bands. The results were normalized by protein loading and further plotted as percent of control of the band density.

Test [3] concerns the target T1, nuclear receptor for 1α,25(OH)2 D3 [VDRnuc] (Gallus gallus, UniProt O42392).
T1 construct: VDRnuc receptor preparation from chick intestine mucosa; from tissue; host or cells: chick intestinal mucosa
T1 sequence (O42392 1-451): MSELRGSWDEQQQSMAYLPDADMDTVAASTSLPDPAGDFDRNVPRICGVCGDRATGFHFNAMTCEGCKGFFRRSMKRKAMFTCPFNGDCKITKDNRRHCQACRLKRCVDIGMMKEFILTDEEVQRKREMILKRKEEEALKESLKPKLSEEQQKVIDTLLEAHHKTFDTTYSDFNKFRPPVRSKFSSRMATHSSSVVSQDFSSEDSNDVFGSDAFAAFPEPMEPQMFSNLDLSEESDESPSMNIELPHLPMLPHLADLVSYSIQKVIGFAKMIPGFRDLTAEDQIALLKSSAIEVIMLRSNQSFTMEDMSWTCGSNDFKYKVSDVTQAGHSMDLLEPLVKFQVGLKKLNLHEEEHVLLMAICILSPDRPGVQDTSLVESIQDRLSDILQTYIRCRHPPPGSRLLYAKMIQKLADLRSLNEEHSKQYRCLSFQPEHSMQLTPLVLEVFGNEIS
The test can be described thus: Relative Competitive Index (steroid competition) assay, nuclear receptor VDRnuc. In kind it is binding, chick. More on the design: key to Nuclear 1α,25-D Receptor (RCI): % relative to 1α,25(OH)2D3 binding (RCI = 100%). Here is the method:
The ability of analogs to mediate genomic responses are directly determined by the ability of the analog in question to bind to the nuclear receptor for 1α,25(OH)2 D3 [VDRnuc ]. This ability is detected by the assay measuring Relative Competitive Index (RCI).
The assay is based upon the principles of a steroid competition assay. A fixed amount of [^3 H]1α,25(OH)2 D3 is mixed with increasing amounts of competitive analogs or the natural hormone, 1α,25(OH)2 D3, and incubated with a VDRnuc receptor preparation from chick intestine mucosa.
Ligand Receptor Competition Assay
This example describes a ligand receptor competitive assay used for determination of an analog's relative ability to bind to VDRnuc expressed as relative competitive index (RCI).
The relative affinity of nonradioactive 1α,25(OH)2 D3 and each analog to compete with [^3 H]1α,25(OH)2 D3 for binding to the VDRnuc of NB4 cells was carried out in vitro. The NB4 cells were collected from a fast growing stage and the cellular VDRnuc of 1α,25(OH)2 D3 were extracted from KTED buffer containing 10 mM Tris-HCl, pH 7.4, 300 mM KCl, 1 mM EDTA and 5 mM DTT. After sonication, the cell extract was further centrifuged at 500× g for 10 min. The supernatant was collected for use in a ligand-receptor binding assay.
In this assay, increasing concentrations (10^-10 to 10^-6 M) of nonradioactive 1α,25(OH)2 D3 or the tested analogs were incubated with NB4 cell extracts in the presence of a fixed saturating amount of 1 pmole of [^3 H]1α,25(OH)2 D3. The reciprocal of the percentage of maximal binding of [^3 H]1α,25(OH)2 D3 was then calculated and plotted as a function of the relative analog concentration versus [^3 H]1α,25(OH)2 D3. […] The competitive index value for each analog is then normalized to the competitive index value of the […], thereby generating the value of Relative Competitive Index (RCI) where the RCI for 1α,25(OH)2 D3 is defined as 100%.
The full description of the assay is found in Methods in Enzymology: Vitamins and Co-Enzymes, Vol. 67, 494-500 , Academic Press, NY(1980); Biochem. Biophys. Res. Commun., 91: 827-834 (1979); and Endocrinology, 139(2): 457-465 (1998).

For another test, the system named is VDRnuc. The test can be described thus: Genomic response (summary classification). The note with it: Yes/No, Tables 1 and 6. From the text: (§1) Table 6 identifies biological properties, such as genomic response, rapid response, agonist or antagonist function, binding of the analog to the vitamin binding protein (expressed as RCI), binding to the nuclear 1α,25(OH)2 D3 receptor (expressed as RCI) rapid response (expressed as % transcaltachia the rapid hormonal stimulation of intestinal calcium absorption) the classic vitamin D responses such as intestinal Ca^2+ absorption (ICA) and bone Ca^2+ mobilizing activity (BCM) determined in vivo in a vitamin D-deficient chick, and cell differentiation (expressed as % ED50), an assessment of the ability to promote the nuclear response of cell differentiation.

A further test relates to rapid responses (VDRmem). The test can be described thus: Antagonist function (summary classification). The note with it: Yes/No, Tables 1 and 6.
From the text: as §1

In another test the test system is VDRmem. The test can be described thus: Rapid response (summary classification). Conditions: Yes/No, Tables 1 and 6.
From the text: as §1

For another test, the system named is HL-60 cells. Put plainly: Cell differentiation assay (NBT reduction). In kind it is cell-based.
Test [4] relates to intestinal Ca2+ transport in perfused chick duodena (transcaltachia). The test can be described thus: Transcaltachia assay (rapid stimulation of 45Ca2+ transport in perfused duodena). Conditions: 1α,25(OH)2 D3 = 100. Here is the method:
Duodenal loops from normal, vitamin D-replete chicks were lumenally perfused with ^45 Ca^2+ (5 uCi/ml of buffer). To establish basal transport rates, celiac artery of controls were perfused with control medium for the first 20 min. The duodena were then either re-exposed to control medium containing the vehicle ethanol (0.005%, final concentration) through the celiac artery, or vascularly perfused with 300 pM or 650 pM agonist analogs JM or JN or with 650 pM of a control reference compound 1α,25(OH)2 D3. The venous effluent was collected at 2 min intervals for liquid scintillation spectrophotometry of the ^45 Ca^2+. […] Values represent mean ±SEM for n=4 in each group.
The data shown in FIG. 13 are the mean ±SEM from 4-5 duodena. […] Open circles represent the negative control receiving no treatment with 1α,25(OH)2 D3 or analog. […] Data represent the ratio of treated to basal values ±SEM extracted from a time-course plot (as in panel A) at 32 minutes.
This example describes the assay used for testing rapid response transcaltachia described in J. Biol. Chem, 268: 13811-13819 (1993).
White Leghorn cockerels (Hyline International, Lakeview, Calif.) were obtained on the day of hatch and maintained on a vitamin D-supplemented diet (1.0% calcium and 1.0% phosphorus; O. H. Kruse Grain and Milling, Ontario, Calif.) for 5-6 weeks to prepare normal vitamin D3 -replete chicks for use in the transcaltachia studies.
Measurements of ^45 Ca^2+ transport were carried out in perfused chick duodena. Normal vitamin D-replete chicks weighing approximately 500 g were anesthetized with 0.3 ml per 100 g Chloropent (Fort Dodge, Iowa), and the duodenal loop was surgically exposed. The celiac vein and blood vessels branching off from the celiac artery were ligated before cannulation of the celiac artery itself, and vascular perfusion was immediately initiated. Both the celiac artery and vein of the duodena were perfused with modified Grey's balanced salt solution (GBSS) +0.9 mM Ca which was oxygenated with 95% O2 and 5% CO2. A basal transport rate was established by perfusion with control medium for 20 minutes after the intestinal lumen was filled with ^45 Ca^2+. The tissue was then exposed to 1α,25(OH)2 D3 or analogs or reexposed to control medium for an additional 40 minutes. The vascular perfusate was collected at 2 min intervals during the last 10 min of the basal and during the entire treatment period. Duplicate 100 μl aliquots were taken for determination of the ^45 Ca^2+ levels by liquid scintillation spectrometry.

From the text for HL-60 cells: The cell differentiation assay is used for a determination of relative potency of the analog vis-a-vis the potency of the reference compound 1α,25(OH)2 D3 in promoting the cell differentiation or inhibiting the cell proliferation. The results of the cell differentiation assay are expressed as the effective dose-50 (ED-50) which is defined as 50% of the concentration required for a maximal response.
Cell Differentiation Assay
After 4 days of culture in a humidified atmosphere of 5% CO2 in air at 37° C., the dishes were shaken to loosen any adherent cells. All cells were then assayed for differentiation by NBT reduction assay and for proliferation by [^3 H]thymidine incorporation.
Superoxide production was assayed by nitro blue tetrazolium-reducing activity as follows.
The percentage of cells containing black formazan deposits was determined using a hemacytometer.

In the case of `C=C1/C(=C\C=C2/CCC[C@]3(C)[C@@H]([C@H](C)CCCC(C)(C)O)CC[C@@H]23)C[C@@H](O)C[C@H]1O` [Analog HL, 1β,25-dihydroxyvitamin D3], the “antagonism of 1α,25(OH)2 D3-stimulated chloride channel opening” value in test [1] is reported as “significantly reduced”.
`CC1=C(/C=C\C2=CCC[C@]3(C)[C@@H]([C@H](C)CCCC(C)(C)O)CC[C@@H]23)C[C@@H](O)C[C@@H]1O` [HF]: the “activation of MAP-kinase versus 1α,25(OH)2 D3” value is reported as “more than 1α,25(OH)2 D3” in test [2] (1 minute) and “only slightly less active” in test [2] (5 minute).
Take `C=C1/C(=C\C=C2/CCC[C@]3(CO)[C@@H]([C@H](C)CCCC(C)(C)O)CC[C@@H]23)C[C@@H](O)C[C@@H]1O` [HS]: the “Binding to VDRnuc relative to 1α,25(OH)2 D3 (RCI)” value in test [3] (1α,25(OH)2 D3 = 100%, FIG. 8: chick intestine mucosa) worked out at 25%. The “Nuclear 1α,25-D Receptor (RCI)” value in test [3] (RCI of 1α,25(OH)2 D3 = 100) came out at 25. Further, in the test on VDRnuc, the “Genomic Response” value is “Yes”. Besides, the Antagonist result with rapid responses (VDRmem) was “No”. The “Rapid Response” value in the test on VDRmem is reported as “Yes”. Moreover, the “potency at promoting cell differentiation versus 1α,25(OH)2 D3” value with HL-60 cells is on record as “about twenty times more potent”.
`CC1=C(/C=C/C2=CCC[C@]3(C)[C@@H]([C@H](C)CCCC(C)(C)O)CC[C@@H]23)C[C@@H](O)C[C@@H]1O` [JB]: in test [4], the “Rapid Trans-Caltachia, relative to 1α,25(OH)2 D3” value is “smaller than 5%”.

The values above are taken from patent US6103709A (priority 1998, dated 2000).
